Non-standard residues stand in square brackets, D forms with d. No end group written: not given here. *: point of attachment. Biotin = O=C1N[C@H]2[C@H](CS[C@H]2CCCCC(=O)*)N1; R(dz) = photo-arginine
Test system: HEK293T nuclear lysates
Experiment: SILAC‐based pull‐down proteomics H4K5me1/H4K5 (probes 6/5)
Type: binding, human
Details: for C6 log (H4K5me/H4K5): run C6; for B6 log2 (H4K5me/H4K5): run B6

probe 6: H4K5me peptide probe with photo‐arginine R(dz) and K(biotin) (SG[R(dz)]GK(Me)GGKGLGKGGK(Biotin))
C6 log (H4K5me/H4K5) (protein P46109 CRKL): 0.1336
B6 log2 (H4K5me/H4K5) (protein P49959 MRE11A): 0.207
C6 log (H4K5me/H4K5) (protein P49959 MRE11A): 0.09642
B6 log2 (H4K5me/H4K5) (protein P54886 ALDH18A1): 0.2574
C6 log (H4K5me/H4K5) (protein P54886 ALDH18A1): 0.1226
B6 log2 (H4K5me/H4K5) (protein P60842 EIF4A1): 0.1721
C6 log (H4K5me/H4K5) (protein P60842 EIF4A1): 0.03464
B6 log2 (H4K5me/H4K5) (protein P62140 PPP1CB): 0.1941
C6 log (H4K5me/H4K5) (protein P62140 PPP1CB): 0.1375
B6 log2 (H4K5me/H4K5) (protein P78527 PRKDC): 0.1659
C6 log (H4K5me/H4K5) (protein P78527 PRKDC): 0.03578
B6 log2 (H4K5me/H4K5) (protein P82979 SARNP): 0.2593
C6 log (H4K5me/H4K5) (protein P82979 SARNP): 0.2358
B6 log2 (H4K5me/H4K5) (protein P83916 CBX1): 1.115
C6 log (H4K5me/H4K5) (protein P83916 CBX1): 1.115
B6 log2 (H4K5me/H4K5) (protein Q5JRI1 FUSIP1): 0.2091
C6 log (H4K5me/H4K5) (protein Q5JRI1 FUSIP1): 0.05687
B6 log2 (H4K5me/H4K5) (protein Q5QPR4 CDC2L2): 0.1546
C6 log (H4K5me/H4K5) (protein Q5QPR4 CDC2L2): 0.218
B6 log2 (H4K5me/H4K5) (protein Q5SY16 NOL9): 0.2457
C6 log (H4K5me/H4K5) (protein Q5SY16 NOL9): 0.6439
B6 log2 (H4K5me/H4K5) (protein Q5T760 SFRS11): 0.2194
C6 log (H4K5me/H4K5) (protein Q5T760 SFRS11): 0.159
B6 log2 (H4K5me/H4K5) (protein Q5UIP0 RIF1): 0.2471
C6 log (H4K5me/H4K5) (protein Q5UIP0 RIF1): 0.213
B6 log2 (H4K5me/H4K5) (protein Q6PD62 CTR9): 0.2151
C6 log (H4K5me/H4K5) (protein Q6PD62 CTR9): 0.2109
B6 log2 (H4K5me/H4K5) (protein Q6PJT7 ZC3H14): 0.2381
C6 log (H4K5me/H4K5) (protein Q6PJT7 ZC3H14): 0.2485
B6 log2 (H4K5me/H4K5) (protein Q7Z6E9 RBBP6): 0.1468
C6 log (H4K5me/H4K5) (protein Q7Z6E9 RBBP6): 0.358
B6 log2 (H4K5me/H4K5) (protein Q8IX15 HOMEZ): 0.2323
C6 log (H4K5me/H4K5) (protein Q8IX15 HOMEZ): 0.1198
B6 log2 (H4K5me/H4K5) (protein Q8N3X1 FNBP4): 0.1827
C6 log (H4K5me/H4K5) (protein Q8N3X1 FNBP4): 0.2005
B6 log2 (H4K5me/H4K5) (protein Q8N5C6 SRBD1): 0.1982
C6 log (H4K5me/H4K5) (protein Q8N5C6 SRBD1): 0.09557
B6 log2 (H4K5me/H4K5) (protein Q8N163 KIAA1967): 0.1537
C6 log (H4K5me/H4K5) (protein Q8N163 KIAA1967): 0.2348
B6 log2 (H4K5me/H4K5) (protein Q8TDD1 DDX54): 0.1648
C6 log (H4K5me/H4K5) (protein Q8TDD1 DDX54): 0.2394
B6 log2 (H4K5me/H4K5) (protein Q9BVJ6 UTP14A): 0.973
C6 log (H4K5me/H4K5) (protein Q9BVJ6 UTP14A): 0.973
B6 log2 (H4K5me/H4K5) (protein Q9H2P0 ADNP): 0.2412
C6 log (H4K5me/H4K5) (protein Q9H2P0 ADNP): -0.7035
B6 log2 (H4K5me/H4K5) (protein Q9H7L9 SUDS3): 1.175
C6 log (H4K5me/H4K5) (protein Q9H7L9 SUDS3): 1.175
B6 log2 (H4K5me/H4K5) (protein Q9H9A6 LRRC40): 0.1942
C6 log (H4K5me/H4K5) (protein Q9H9A6 LRRC40): 0.05299
B6 log2 (H4K5me/H4K5) (protein Q9UBD5 ORC3): 0.1586
C6 log (H4K5me/H4K5) (protein Q9UBD5 ORC3): -0.1103
B6 log2 (H4K5me/H4K5) (protein Q9UBW7 ZMYM2): 0.2577
C6 log (H4K5me/H4K5) (protein Q9UBW7 ZMYM2): 0.2945
B6 log2 (H4K5me/H4K5) (protein Q9UHB6 LIMA1): 0.1593
C6 log (H4K5me/H4K5) (protein Q9UHB6 LIMA1): 0.1812
B6 log2 (H4K5me/H4K5) (protein Q9UQ80 PA2G4): 0.1452
C6 log (H4K5me/H4K5) (protein Q9UQ80 PA2G4): -0.04803
B6 log2 (H4K5me/H4K5) (protein Q9UQR0 SCML2): 0.7435
C6 log (H4K5me/H4K5) (protein Q9UQR0 SCML2): 0.7435
B6 log2 (H4K5me/H4K5) (protein Q9Y2L1 DIS3): 0.1845
C6 log (H4K5me/H4K5) (protein Q9Y2L1 DIS3): 0.1312
B6 log2 (H4K5me/H4K5) (protein Q9Y6C9 MTCH2): 0.1565
C6 log (H4K5me/H4K5) (protein Q9Y6C9 MTCH2): -0.06142
B6 log2 (H4K5me/H4K5) (protein Q86VP6 CAND1): 0.1606
C6 log (H4K5me/H4K5) (protein Q86VP6 CAND1): 0.2263
B6 log2 (H4K5me/H4K5) (protein Q00839 HNRNPU): 0.2071
C6 log (H4K5me/H4K5) (protein Q00839 HNRNPU): 0.1339
B6 log2 (H4K5me/H4K5) (protein Q01082 SPTBN1): 0.2576
C6 log (H4K5me/H4K5) (protein Q01082 SPTBN1): 0.166
B6 log2 (H4K5me/H4K5) (protein Q06265 EXOSC9): 0.1802
C6 log (H4K5me/H4K5) (protein Q06265 EXOSC9): 0.08146
B6 log2 (H4K5me/H4K5) (protein Q06330 RBPJ): 0.1919
C6 log (H4K5me/H4K5) (protein Q06330 RBPJ): -0.04363
B6 log2 (H4K5me/H4K5) (protein Q09161 NCBP1): 0.2194
C6 log (H4K5me/H4K5) (protein Q09161 NCBP1): 0.2078
B6 log2 (H4K5me/H4K5) (protein Q12874 SF3A3): 0.1922
C6 log (H4K5me/H4K5) (protein Q12874 SF3A3): 0.1113
B6 log2 (H4K5me/H4K5) (protein Q12888 TP53BP1): 0.2132
C6 log (H4K5me/H4K5) (protein Q12888 TP53BP1): 0.1756
B6 log2 (H4K5me/H4K5) (protein Q13185 CBX3): 1.132
C6 log (H4K5me/H4K5) (protein Q13185 CBX3): 1.132
B6 log2 (H4K5me/H4K5) (protein Q13363 CTBP1): 0.1923
C6 log (H4K5me/H4K5) (protein Q13363 CTBP1): -0.1428
B6 log2 (H4K5me/H4K5) (protein Q13416 ORC2): 0.2451
C6 log (H4K5me/H4K5) (protein Q13416 ORC2): 0.438
B6 log2 (H4K5me/H4K5) (protein Q14137 BOP1): 0.2019
C6 log (H4K5me/H4K5) (protein Q14137 BOP1): -0.001199
B6 log2 (H4K5me/H4K5) (protein Q14498 RBM39): 0.2408
C6 log (H4K5me/H4K5) (protein Q14498 RBM39): 0.2735
B6 log2 (H4K5me/H4K5) (protein Q14683 SMC1A): 0.1556
C6 log (H4K5me/H4K5) (protein Q14683 SMC1A): 0.1782
B6 log2 (H4K5me/H4K5) (protein Q15459 SF3A1): 0.2515
C6 log (H4K5me/H4K5) (protein Q15459 SF3A1): 0.3427
B6 log2 (H4K5me/H4K5) (protein Q16555 DPYSL2): 0.7641
C6 log (H4K5me/H4K5) (protein Q16555 DPYSL2): 0.7641
B6 log2 (H4K5me/H4K5) (protein Q16658 FSCN1): 0.2138
C6 log (H4K5me/H4K5) (protein Q16658 FSCN1): 0.727
B6 log2 (H4K5me/H4K5) (protein Q92688 ANP32B): 0.1648
C6 log (H4K5me/H4K5) (protein Q92688 ANP32B): 0.135
B6 log2 (H4K5me/H4K5) (protein Q99613 EIF3C): 0.2459
C6 log (H4K5me/H4K5) (protein Q99613 EIF3C): 0.04711
